Seven compounds from ChEMBL document CHEMBL1817599, “Inhibition of LuxS by S-ribosylhomocysteine analogues containing a [4-aza]ribose ring” (Bioorg Med Chem, 2011) can be followed below.

Each structure is given as a SMILES string. pIC50: −log10 of the molar value. Calls of active or inactive are those of the source. The rule behind the calls is not given here.

For orientation: Ki means the dissociation constant of the complex between target and ligand, obtained from inhibition or displacement. Usually pIC50 stands for −log10 of the IC50, conventionally taken in molar units. Low readings indicate a high IC50, high ones a low IC50.

Assay [1] concerns the target T1, S-ribosylhomocysteine lyase (Bacillus subtilis (strain 168)) (UniProt O34667).
T1 sequence (whole entry): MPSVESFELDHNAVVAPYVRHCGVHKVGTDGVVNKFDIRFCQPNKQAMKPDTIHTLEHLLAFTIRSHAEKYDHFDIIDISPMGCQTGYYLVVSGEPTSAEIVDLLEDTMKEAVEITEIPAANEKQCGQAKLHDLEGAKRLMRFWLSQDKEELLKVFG
The experiment in a line: Inhibition of Bacillus subtilis LuxS preincubated for 15 mins by UV-vis spectrophotometric analysis.

For assay [2], the target named is T1, S-ribosylhomocysteine lyase (Bacillus subtilis (strain 168)). Put plainly: Competitive inhibition of Bacillus subtilis LuxS preincubated for 15 mins by UV-vis spectrophotometric analysis.
Assay [3] shares this target. The experiment in a line: Inhibition of Bacillus subtilis LuxS at 20 to 50 uM by UV-vis spectrophotometric analysis. The note with it: TDE = time-dependent effect.
For assay [4] the target is unchanged. The experiment in a line: Competitive inhibition of Bacillus subtilis LuxS preincubated for 30 mins by UV-vis spectrophotometric analysis.
For assay [5], the target named is T2, S-ribosylhomocysteine lyase (Bacillus subtilis (strain 168), UniProt O34667).
T2 sequence (O34667 whole entry): T1 sequence (whole entry)
Described as above.

With `N[C@@H](CCSC[C@@H]1CCC(O)N1)C(=O)O` (mixture of isomers), in assay [1], the inhibition result was “inactive”.

`CC1=N[C@H](CSCCC(N)C(=O)O)[C@@H](O)[C@H]1O` (mixture of isomers): in assay [1], the inhibition entry is “inactive”.

Take `N[C@@H](CCSC[C@H]1NC[C@H](O)[C@@H]1O)C(=O)O`: the inhibition result in assay [2] was “Dose-dependent effect”.

On to `N[C@@H](CCSC[C@@H]1[C@@H](O)[C@@H](O)C(=O)N1Cc1ccccc1)C(=O)O`, for which, in assay [1], the inhibition entry is “inactive”.

Consider `CCCSC[C@@H]1CCC(O)N1` (mixture of isomers), for which the inhibition result in assay [1] is “inactive”.

Regarding `N[C@@H](CCSC[C@H]1NC(O)[C@H](O)[C@@H]1O)C(=O)O` (mixture of isomers), the inhibition result in assay [3] is “tde”. Moreover, affinity in assay [4] was put at a Ki of 3.5 µM. Also, the negative logarithm of the IC50 (pIC50) in assay [5] was 4.22.

On to `NC(CCSC[C@@H]1CCC(=O)N1)C(=O)O` (mixture of isomers), for which, in assay [1], the inhibition entry is “inactive”.
